From US10953037B2, “Chondroitin sulfate derivative and agent for treating bladder diseases” (priority 2015, dated 2021) come the findings set out here.

Assay [1] concerns hydrochloric acid-induced micturition model rats. The assay is described as follows: Test Example B3: urinary function, rat hydrochloric acid-induced micturition model (comparison of conjugates and mixture). It counts as in vivo. As to conditions: 3% (w/v %) conjugate or mixture of 3% CS+[…] BTM, 0.2 mL single intravesical administration, cystometry seven days after HCl, vs. control. The method, then:
A chondroitin sulfate derivative prepared in compliance with the method of Example 2 was dissolved in phosphate-buffered saline to prepare the test substances indicated below.
(§1) Two days after continuous instillation of hydrochloric acid, 0.2 mL of each test substance were administered transurethrally using a catheter (PE50) and retained in the bladder for 30 minutes under anesthesia.

The test system is the same in assay [2]. The experiment in a line: Test Example B1: urinary function, rat hydrochloric acid-induced micturition model (steroid comparison). As to conditions: […] (w/v %), 0.2 mL single intravesical administration two days after HCl, cystometry seven days after HCl, vs. control (saline); for Intercontraction interval: FIG. 1.
Assay [3] shares this test system. As to conditions: […] (w/v %), 0.2 mL single intravesical administration two days after HCl, cystometry seven days after HCl, vs. control (saline); for Intercontraction interval: FIG. 2. As for the experimental part: Chondroitin sulfate derivatives prepared in compliance with the methods of Examples 3, 4 and 5 were dissolved in phosphate-buffered saline to prepare the test substances indicated below.
as §1
Intercontraction interval and single voided volume were measured after changes in intravesical pressure had stabilized.

Where two headings read alike, the source gives them in different places.

Turning to “CS introduced with 21-β-Alanyl-Betamethasone [CS-βAla-BTM]”, the Single voided volume entry in assay [1] and in assay [2] was “significant increase in single voided volume” in each case. The Intercontraction interval result in assay [1] (FIG. 4) and in assay [2] was “significantly increased intercontraction interval” in each case.

For the substance “CS introduced with 21-β-Alanyl-Prednisolone [CS-βAla-PRED]”, in assay [2], the Single voided volume entry is “significant increase in single voided volume” and the Intercontraction interval entry is listed as “significantly increased intercontraction interval”.

In the case of “CS introduced with 21-Isoleucyl-Triamcinolone Acetonide [CS-Ile-TA]”, in assay [3], the Single voided volume entry is “significant increase in single voided volume” and the Intercontraction interval result was “significantly increased intercontraction interval”.

On to “CS introduced with 21-β-Alanyl-Triamcinolone Acetonide [CS-βAla-TA]”, for which, in assay [3], the Single voided volume entry is given as “significant increase in single voided volume” and the Intercontraction interval result is given as “significantly increased intercontraction interval”. For the same substance, in assay [2], the Single voided volume result is listed as “significant increase in single voided volume” and the Intercontraction interval result was “significantly increased intercontraction interval”.

Take “CS introduced with 21-Glycyl-Triamcinolone Acetonide [CS-Gly-TA]”: in assay [3], the Single voided volume entry is recorded as “significant increase in single voided volume” and the Intercontraction interval entry was “significantly increased intercontraction interval”.
